Assay results from patent US20230095021A1, “MODULATORS OF TDP-43” (Alteron Therapeutics, Inc., priority 2019, published 2023).

system: BACE1; test: Screening for ALT-59 derivatives with BACE1 protein levels as indicator, U-87 MG cells; type: cell-based; settings: 2 days, concentrations as indicated in FIGS. 15-17
Method: Additional experiments were performed to screen for compounds with higher potency and the ability to penetrate blood brain barrier using BACE1 protein levels as an indicator. U-87 MG cells were cultured as described previously and treated for 2 days with compounds at concentrations as indicated in FIGS. 15-17. Cells were then subjected to Western blotting analysis using anti-BACE1 and anti-beta-actin antibodies.

| Compound | BACE1 protein expression |
| --- | --- |
| COc1ccc(C2Nc3c(ccc4ccccc34)C3=C2C(=O)CCC3)cc1Br (stereo not shown) [ALT-108, 6-(3-bromo-4-methoxyphenyl)-6,8,9,10-tetrahydrobenzo[c]phenanthridin-7(5H)-one] | capable of lowering BACE1 expression |
| CC1(C)CC(=O)C2=C(C1)c1c(ccc3ccccc13)NC2c1cccc(OC(F)(F)C(F)F)c1 (stereo not shown) [ALT-110, 2,2-dimethyl-5-(3-(1,1,2,2-tetrafluoroethoxy)phenyl)-2,3,5,6-tetrahydrobenzo[a]phenanthridin-4(1H)-one] | capable of lowering BACE1 expression |
| CC1(C)CC(=O)C2=C(C1)C(c1ccc3c(c1)OCO3)Nc1ccc3ccccc3c12 (stereo not shown) [ALT-201, 5-(benzo[d][1,3]dioxol-5-yl)-3,3-dimethyl-3,4,5,6-tetrahydrobenzo[a]phenanthridin-1(2H)-one] | capable of lowering BACE1 expression |
| CC1(C)CC(=O)C2=C(C1)c1c(ccc3ccccc13)NC2c1ccc(Br)s1 (stereo not shown) [ALT-202, 5-(5-bromothiophen-2-yl)-2,2-dimethyl-2,3,5,6-tetrahydrobenzo[a]phenanthridin-4(1H)-one] | capable of lowering BACE1 expression |
| CC1(C)CC(=O)C2=C(C1)c1c(ccc3ccccc13)NC2c1ccc(Cl)c(Cl)c1 (stereo not shown) [ALT-204, 5-(3,4-dichlorophenyl)-2,2-dimethyl-2,3,5,6-tetrahydrobenzo[a]phenanthridin-4(1H)-one] | capable of lowering BACE1 expression |
| CC1(C)CC(=O)C2=C(C1)c1cc3ccccc3cc1NC2c1ccc2c(c1)OCO2 (stereo not shown) [ALT-205, 5-(benzo[d][1,3]dioxol-5-yl)-2,2-dimethyl-2,3,5,6-tetrahydrobenzo[b]phenanthridin-4(1H)-one] | capable of lowering BACE1 expression |
| CCOc1ccc(C2Nc3ccc4ccccc4c3C3=C2C(=O)CC(C)(C)C3)cc1OC (stereo not shown) [ALT-207, 5-(4-ethoxy-3-methoxyphenyl)-2,2-dimethyl-2,3,5,6-tetrahydrobenzo[a]phenanthridin-4(1H)-one] | capable of lowering BACE1 expression |
| COc1cc(C2Nc3ccc4ccccc4c3C3=C2C(=O)CC(C)(C)C3)cc(Br)c1OC (stereo not shown) [ALT-208, 5-(3-bromo-4,5-dimethoxyphenyl)-2,2-dimethyl-2,3,5,6-tetrahydrobenzo[a]phenanthridin-4(1H)-one] | capable of lowering BACE1 expression |
| CC1(C)CC(=O)C2=C(C1)c1c(ccc3ccccc13)NC2c1cccc(OCc2cc3c(cc2Cl)OCO3)c1 (stereo not shown) [ALT-210, 5-(3-((6-chlorobenzo[d][1,3]dioxol-5-yl)methoxy)phenyl)-2,2-dimethyl-2,3,5,6-tetrahydrobenzo[a]phenanthridin-4(1H)-one] | capable of lowering BACE1 expression |
| COc1cc(C2Nc3ccc4ccccc4c3C3=C2C(=O)CC(C)(C)C3)cc2c1OCO2 (stereo not shown) [ALT-211, 5-(7-methoxybenzo[d][1,3]dioxol-5-yl)-2,2-dimethyl-2,3,5,6-tetrahydrobenzo[a]phenanthridin-4(1H)-one] | capable of lowering BACE1 expression |
| CC1(C)CC(=O)C2=C(C1)c1c(ccc3ccccc13)NC2c1ccc(C(F)(F)F)cc1 (stereo not shown) [ALT-212, 2,2-dimethyl-5-(4-(trifluoromethyl)phenyl)-2,3,5,6-tetrahydrobenzo[a]phenanthridin-4(1H)-one] | capable of lowering BACE1 expression |
| CC1(C)CC(=O)C2=C(C1)c1c(ccc3ccccc13)NC2c1cccc(C(F)(F)F)c1 (stereo not shown) [ALT-215, 2,2-dimethyl-5-(3-(trifluoromethyl)phenyl)-2,3,5,6-tetrahydrobenzo[a]phenanthridin-4(1H)-one] | capable of lowering BACE1 expression |
| Cc1ccc(C2Nc3ccc4ccccc4c3C3=C2C(=O)CC(C)(C)C3)cc1 (stereo not shown) [ALT-306, 2,2-dimethyl-5-(p-tolyl)-2,3,5,6-tetrahydrobenzo[a]phenanthridin-4(1H)-one] | capable of lowering BACE1 expression |
| COc1ccc(C2Nc3ccc4ccccc4c3C3=C2C(=O)CC(C)(C)C3)cc1Br (stereo not shown) [ALT-307, 5-(3-bromo-4-methoxyphenyl)-2,2-dimethyl-2,3,5,6-tetrahydrobenzo[a]phenanthridin-4(1H)-one] | capable of lowering BACE1 expression |
| CC1(C)CC(=O)C2=C(C1)c1c(ccc3ccccc13)NC2c1ccc(C(C)(C)C)cc1 (stereo not shown) [ALT-308, 5-(4-(tert-butyl)phenyl)-2,2-dimethyl-2,3,5,6-tetrahydrobenzo[a]phenanthridin-4(1H)-one] | capable of lowering BACE1 expression |
| CC(C)c1ccc(C2Nc3ccc4ccccc4c3C3=C2C(=O)CC(C)(C)C3)cc1 (stereo not shown) [ALT-309, 5-(4-isopropylphenyl)-2,2-dimethyl-2,3,5,6-tetrahydrobenzo[a]phenanthridin-4(1H)-one] | capable of lowering BACE1 expression |
| CSc1ccc(C2Nc3ccc4ccccc4c3C3=C2C(=O)CC(C)(C)C3)cc1 (stereo not shown) [ALT-311, 2,2-dimethyl-5-(4-(methylthio)phenyl)-2,3,5,6-tetrahydrobenzo[a]phenanthridin-4(1H)-one] | capable of lowering BACE1 expression |
| O=C1CCCC2=C1C(c1ccc(O)c(O)c1)Nc1c2ccc2ccccc12 (stereo not shown) [ALT-317, 6-(3,4-dihydroxyphenyl)-6,8,9,10-tetrahydrobenzo[c]phenanthridin-7(5H)-one] | capable of lowering BACE1 expression |
| CCN(CC)c1ccc(C2Nc3ccc4ccccc4c3C3=C2C(=O)CC(C)(C)C3)cc1 (stereo not shown) [ALT-318, 5-(4-(diethylamino)phenyl)-2,2-dimethyl-2,3,5,6-tetrahydrobenzo[a]phenanthridin-4(1H)-one] | capable of lowering BACE1 expression |
| CC1CCN(c2ccc(C3Nc4ccc5ccccc5c4C4=C3C(=O)CC(C)(C)C4)cc2[N+](=O)[O-])CC1 (stereo not shown) [ALT-322, 2,2-dimethyl-5-(4-(4-methylpiperidin-1-yl)-3-nitrophenyl)-2,3,5,6-tetrahydrobenzo[a]phenanthridin-4(1H)-one] | capable of lowering BACE1 expression |
| Cn1ccnc1Sc1ccc(C2Nc3ccc4ccccc4c3C3=C2C(=O)CC(C)(C)C3)cc1[N+](=O)[O-] (stereo not shown) [ALT-324, 2,2-dimethyl-5-(4-((1-methyl-1H-imidazol-2-yl)thio)-3-nitrophenyl)-2,3,5,6-tetrahydrobenzo[a]phenanthridin-4(1H)-one] | capable of lowering BACE1 expression |
| Cc1ccc(C2Nc3c(ccc4ccccc34)C3=C2C(=O)CC(C)(C)C3)cc1 (stereo not shown) [ALT-333, 9,9-dimethyl-6-(p-tolyl)-6,8,9,10-tetrahydrobenzo[c]phenanthridin-7(5H)-one] | capable of lowering BACE1 expression |
| C#CCOc1c(I)cc(C2Nc3ccc4ccccc4c3C3=C2C(=O)CC(C)(C)C3)cc1OC (stereo not shown) [ALT-402, 5-(3-iodo-5-methoxy-4-(prop-2-yn-1-yloxy)phenyl)-2,2-dimethyl-2,3,5,6-tetrahydrobenzo[a]phenanthridin-4(1H)-one] | capable of lowering BACE1 expression |
| O=C1CCCC2=C1C(c1ccc3c(c1)OCO3)Nc1c2ccc2ncccc12 (stereo not shown) [ALT-403, 6-(benzo[d][1,3]dioxol-5-yl)-6,8,9,10-tetrahydrobenzo[c][1,7]phenanthrolin-7(5H)-one] | capable of lowering BACE1 expression |
| CCN(CC)c1ccc(C2Nc3ccc4ncccc4c3C3=C2C(=O)CC(C)(C)C3)cc1 (stereo not shown) [ALT-404, 8-(4-(diethylamino)phenyl)-11,11-dimethyl-8,10,11,12-tetrahydrobenzo[a][4,7]phenanthrolin-9(7H)-one] | capable of lowering BACE1 expression |
| CCOC(=O)COc1c(Cl)cc(C2Nc3ccc4ccccc4c3C3=C2C(=O)CCC3)cc1OC (stereo not shown) [ALT-406, ethyl 2-(2-chloro-6-methoxy-4-(4-oxo-1,2,3,4,5,6-hexahydrobenzo[a]phenanthridin-5-yl)phenoxy)acetate] | capable of lowering BACE1 expression |
| CCCC(=O)Oc1ccc(C2Nc3ccc4ccccc4c3C3=C2C(=O)CCC3)cc1OC (stereo not shown) [ALT-408, 2-methoxy-4-(4-oxo-1,2,3,4,5,6-hexahydrobenzo[a]phenanthridin-5-yl)phenyl butyrate] | capable of lowering BACE1 expression |
| C=CCOc1ccc(C2Nc3ccc4ccccc4c3C3=C2C(=O)CC(C)(C)C3)cc1OC (stereo not shown) [ALT-409, 5-(4-(allyloxy)-3-methoxyphenyl)-2,2-dimethyl-2,3,5,6-tetrahydrobenzo[a]phenanthridin-4(1H)-one] | capable of lowering BACE1 expression |
| COC(=O)COc1ccc(C2Nc3ccc4ccccc4c3C3=C2C(=O)CCC3)cc1 (stereo not shown) [ALT-411, methyl 2-(4-(4-oxo-1,2,3,4,5,6-hexahydrobenzo[a]phenanthridin-5-yl)phenoxy)acetate] | capable of lowering BACE1 expression |
| COc1cc(C2Nc3ccc4ccccc4c3C3=C2C(=O)CC(C)(C)C3)ccc1OCC(=O)O (stereo not shown) [ALT-413, 2-(4-(2,2-dimethyl-4-oxo-1,2,3,4,5,6-hexahydrobenzo[a]phenanthridin-5-yl)-2-methoxyphenoxy)acetic acid] | capable of lowering BACE1 expression |

system: Phe508del-CFTR; test: Phe508del-CFTR localization, immunofluorescence microscopy, primary bronchial epithelial cells of a cystic fibrosis patient; type: cell-based, human; settings: primary bronchial epithelial cells homozygous for Phe508del-CFTR, 2 μM, 3 days
Method: MDA-MB-231 and U-87 MG cells were cultured on cover slips under the conditions as described above. Cells were treated with DMSO or 4 μM ALT-59 for 3 days. Primary human bronchial epithelial cells isolated from cystic fibrosis patient homozygous for Phe508del-CFTR (Lifeline Cell Technology) were cultured on cover slips in BronchiaLife Cell Culture Medium supplemented with BrochiaLife LifeFactors Kit (Lifeline Cell Technology) and maintained at 37° C. in a CO2 incubator. Cells were treated with DMSO, 4 μM ALT-59, 2 μM ALT-308, or 4 μM ALT-410 for 3 days.
Cells were fixed in 4% paraformaldehyde for 15 minutes and permeabilized in 0.1% Triton X-100 for 2 minutes. After being blocked in 5% BSA (Sigma-Aldrich), cells were incubated with anti-CFTR antibody (Alomone Labs) followed by Alexa Fluor 488 anti-rabbit secondary antibody. Reagents were buffered in GIBCO PBS (Phosphate-Buffered Saline). Images were taken using Carl Zeiss LSM 510 Laser Scanning Microscope. Parameters were set identical for all images.

| Compound | localization of Phe508del-CFTR on the plasma membrane |
| --- | --- |
| CC1(C)CC(=O)C2=C(C1)c1c(ccc3ccccc13)NC2c1ccc(C(C)(C)C)cc1 (stereo not shown) [ALT-308, 5-(4-(tert-butyl)phenyl)-2,2-dimethyl-2,3,5,6-tetrahydrobenzo[a]phenanthridin-4(1H)-one] | increased localization of Phe508del-CFTR on the plasma membrane |
